Measurements published in ChEMBL document CHEMBL5260810, “Inhibition of bromodomain-containing protein 9 for the prevention of epigenetically-defined drug resistance” (Bioorg Med Chem Lett, 2017).

Legend:
Calu-3 = test: Cytotoxicity against human Calu-3 cells measured after 8 days; assay type: functional, cell-based; details: Calu-3, 192 h
BEN = test: Cytotoxicity against human BEN cells measured after 8 days; assay type: functional, cell-based; details: 192 h
[1] = molecular target: Transcription initiation factor TFIID subunit 1 (Homo sapiens, UniProt P21675); test: Displacement of biotinylated small-molecule ligand from recombinant His-tagged TAF1 bromodomain 2 (unknown origin) measured after 10 mins by TR-FRET assay
[2] = molecular target: Tyrosine-protein kinase ABL1 (Homo sapiens) (UniProt P00519); test: Inhibition of Abl (unknown origin) at 1 uM relative to control
NCI-H441 = test: Cytotoxicity against human NCI-H441 cells measured after 8 days; assay type: functional, cell-based; details: NCI-H441, 192 h
SW-620 = test: Cytotoxicity against human SW620 cells measured after 8 days; assay type: functional, cell-based; details: SW-620, 192 h
MEL-JUSO = test: Cytotoxicity against human MEL-JUSO cells measured after 8 days; assay type: functional, cell-based; details: 192 h
JIMT-1 = test: Cytotoxicity against human JIMT-1 cells measured after 8 days; assay type: functional, cell-based; details: JIMT-1, 192 h
DAN-G = test: Cytotoxicity against human DAN-G cells measured after 8 days; assay type: functional, cell-based; details: 192 h
[3] = molecular target: Tyrosine-protein kinase Lck (Homo sapiens) (UniProt P06239); test: Inhibition of LCK (unknown origin) at 1 uM relative to control
IGROV-1 = test: Cytotoxicity against human IGROV-1 cells measured after 8 days; assay type: functional, cell-based; details: IGROV-1, 192 h
Rattus norvegicus = organism: Rattus norvegicus; test: Displacement of [3H]flunitrazepam from rat brain central BZD at 10 uM after 60 mins by radioligand binding assay relative to control
HCC1937 = test: Cytotoxicity against human HCC1937 cells measured after 8 days; assay type: functional, cell-based; details: HCC1937, 192 h
[4] = molecular target: T1, Transcription intermediary factor 1-alpha (Homo sapiens, UniProt O15164); test: Binding affinity to human partial length TRIM24 (P790 to P977 residues) expressed in bacterial expression system by BROMOscan assay
T1 sequence (O15164 whole entry): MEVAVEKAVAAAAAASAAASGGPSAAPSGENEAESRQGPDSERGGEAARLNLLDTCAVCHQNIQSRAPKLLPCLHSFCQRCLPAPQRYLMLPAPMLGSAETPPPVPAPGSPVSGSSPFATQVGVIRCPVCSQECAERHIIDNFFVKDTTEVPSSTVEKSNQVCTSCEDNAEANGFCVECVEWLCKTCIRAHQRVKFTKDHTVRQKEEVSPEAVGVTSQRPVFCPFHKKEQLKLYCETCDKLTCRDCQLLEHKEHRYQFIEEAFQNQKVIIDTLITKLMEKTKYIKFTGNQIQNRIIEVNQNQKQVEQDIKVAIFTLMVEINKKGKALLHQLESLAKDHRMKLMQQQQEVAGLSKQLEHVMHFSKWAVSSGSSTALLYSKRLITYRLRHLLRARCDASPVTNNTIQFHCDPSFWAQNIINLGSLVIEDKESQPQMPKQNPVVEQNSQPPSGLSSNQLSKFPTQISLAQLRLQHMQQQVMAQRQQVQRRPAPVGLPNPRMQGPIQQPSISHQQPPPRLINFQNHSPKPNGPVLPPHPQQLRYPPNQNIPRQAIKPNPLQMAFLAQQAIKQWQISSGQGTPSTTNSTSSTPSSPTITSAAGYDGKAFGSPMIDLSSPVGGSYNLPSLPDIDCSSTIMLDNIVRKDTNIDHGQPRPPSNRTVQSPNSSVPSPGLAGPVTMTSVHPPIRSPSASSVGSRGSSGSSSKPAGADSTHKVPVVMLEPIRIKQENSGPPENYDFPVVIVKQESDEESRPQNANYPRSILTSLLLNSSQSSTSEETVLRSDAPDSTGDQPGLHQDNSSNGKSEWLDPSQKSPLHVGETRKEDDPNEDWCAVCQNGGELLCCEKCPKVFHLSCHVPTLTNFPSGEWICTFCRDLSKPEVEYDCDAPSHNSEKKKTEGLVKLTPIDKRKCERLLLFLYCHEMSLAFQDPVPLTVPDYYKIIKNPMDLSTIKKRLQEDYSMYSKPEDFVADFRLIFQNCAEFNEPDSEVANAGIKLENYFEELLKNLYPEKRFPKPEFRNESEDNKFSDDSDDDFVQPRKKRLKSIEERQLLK

NCI-H1944 = test: Cytotoxicity against human NCI-H1944 cells measured after 8 days; assay type: functional, cell-based; details: NCI-H1944, 192 h
[5] = molecular target: Mitogen-activated protein kinase kinase kinase kinase 4 (Homo sapiens) (UniProt O95819); test: Inhibition of MAP4K4 (unknown origin) at 1 uM relative to control
[6] = molecular target: Tyrosine-protein kinase Yes (Homo sapiens) (UniProt P07947); test: Inhibition of Yes (unknown origin) at 1 uM relative to control
MKN-45 = test: Cytotoxicity against human MKN-45 cells measured after 8 days; assay type: functional, cell-based; details: MKN-45, 192 h
[7] = molecular target: T2, Interleukin-1 receptor-associated kinase 4 (Homo sapiens) (UniProt Q9NWZ3); test: Inhibition of IRAK4 (unknown origin) at 1 uM relative to control
T2 sequence (whole entry): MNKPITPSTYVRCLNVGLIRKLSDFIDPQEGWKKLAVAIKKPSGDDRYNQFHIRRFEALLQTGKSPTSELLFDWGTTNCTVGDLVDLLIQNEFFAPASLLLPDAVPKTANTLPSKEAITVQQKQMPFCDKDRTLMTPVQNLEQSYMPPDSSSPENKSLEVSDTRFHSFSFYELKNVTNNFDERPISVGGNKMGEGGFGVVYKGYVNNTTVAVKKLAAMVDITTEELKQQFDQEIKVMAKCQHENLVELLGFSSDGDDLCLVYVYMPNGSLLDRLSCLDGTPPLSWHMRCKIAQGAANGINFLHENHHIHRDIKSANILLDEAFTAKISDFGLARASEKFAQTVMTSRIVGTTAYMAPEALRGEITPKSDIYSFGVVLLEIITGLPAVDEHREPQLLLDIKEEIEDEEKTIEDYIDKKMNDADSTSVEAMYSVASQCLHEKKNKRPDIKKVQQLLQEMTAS

[8] = molecular target: Histone acetyltransferase KAT2A (Homo sapiens, UniProt Q92830); test: Binding affinity to human partial length GCN5L2 (E726 to K837 residues) expressed in bacterial expression system by BROMOscan assay
NCI-H460 = test: Cytotoxicity against human NCI-H460 cells measured after 8 days; assay type: functional, cell-based; details: NCI-H460, 192 h
[9] = molecular target: Adrenergic receptor alpha-1 (Rattus norvegicus) (UniProt P15823+P23944+P43140); test: Displacement of [3H]-prazosin from rat alpha1 adrenoceptor at 10 uM after 60 mins by scintillation counting analysis relative to control; assay type: protein assay
U-698-M = test: Cytotoxicity against human U-698-M cells measured after 8 days; assay type: functional, cell-based; details: 192 h
WM 266-4 = test: Cytotoxicity against human WM266-4 cells measured after 8 days; assay type: functional, cell-based; details: WM 266-4, 192 h
C-33-A = test: Cytotoxicity against human C-33-A cells measured after 8 days; assay type: functional, cell-based; details: 192 h
[10] = Cytotoxicity against human KPR3070 cells measured after 8 days; assay type: functional, cell-based; details: KPR3070, 192 h

Sequence of Transcription initiation factor TFIID subunit 1 (P21675 whole entry): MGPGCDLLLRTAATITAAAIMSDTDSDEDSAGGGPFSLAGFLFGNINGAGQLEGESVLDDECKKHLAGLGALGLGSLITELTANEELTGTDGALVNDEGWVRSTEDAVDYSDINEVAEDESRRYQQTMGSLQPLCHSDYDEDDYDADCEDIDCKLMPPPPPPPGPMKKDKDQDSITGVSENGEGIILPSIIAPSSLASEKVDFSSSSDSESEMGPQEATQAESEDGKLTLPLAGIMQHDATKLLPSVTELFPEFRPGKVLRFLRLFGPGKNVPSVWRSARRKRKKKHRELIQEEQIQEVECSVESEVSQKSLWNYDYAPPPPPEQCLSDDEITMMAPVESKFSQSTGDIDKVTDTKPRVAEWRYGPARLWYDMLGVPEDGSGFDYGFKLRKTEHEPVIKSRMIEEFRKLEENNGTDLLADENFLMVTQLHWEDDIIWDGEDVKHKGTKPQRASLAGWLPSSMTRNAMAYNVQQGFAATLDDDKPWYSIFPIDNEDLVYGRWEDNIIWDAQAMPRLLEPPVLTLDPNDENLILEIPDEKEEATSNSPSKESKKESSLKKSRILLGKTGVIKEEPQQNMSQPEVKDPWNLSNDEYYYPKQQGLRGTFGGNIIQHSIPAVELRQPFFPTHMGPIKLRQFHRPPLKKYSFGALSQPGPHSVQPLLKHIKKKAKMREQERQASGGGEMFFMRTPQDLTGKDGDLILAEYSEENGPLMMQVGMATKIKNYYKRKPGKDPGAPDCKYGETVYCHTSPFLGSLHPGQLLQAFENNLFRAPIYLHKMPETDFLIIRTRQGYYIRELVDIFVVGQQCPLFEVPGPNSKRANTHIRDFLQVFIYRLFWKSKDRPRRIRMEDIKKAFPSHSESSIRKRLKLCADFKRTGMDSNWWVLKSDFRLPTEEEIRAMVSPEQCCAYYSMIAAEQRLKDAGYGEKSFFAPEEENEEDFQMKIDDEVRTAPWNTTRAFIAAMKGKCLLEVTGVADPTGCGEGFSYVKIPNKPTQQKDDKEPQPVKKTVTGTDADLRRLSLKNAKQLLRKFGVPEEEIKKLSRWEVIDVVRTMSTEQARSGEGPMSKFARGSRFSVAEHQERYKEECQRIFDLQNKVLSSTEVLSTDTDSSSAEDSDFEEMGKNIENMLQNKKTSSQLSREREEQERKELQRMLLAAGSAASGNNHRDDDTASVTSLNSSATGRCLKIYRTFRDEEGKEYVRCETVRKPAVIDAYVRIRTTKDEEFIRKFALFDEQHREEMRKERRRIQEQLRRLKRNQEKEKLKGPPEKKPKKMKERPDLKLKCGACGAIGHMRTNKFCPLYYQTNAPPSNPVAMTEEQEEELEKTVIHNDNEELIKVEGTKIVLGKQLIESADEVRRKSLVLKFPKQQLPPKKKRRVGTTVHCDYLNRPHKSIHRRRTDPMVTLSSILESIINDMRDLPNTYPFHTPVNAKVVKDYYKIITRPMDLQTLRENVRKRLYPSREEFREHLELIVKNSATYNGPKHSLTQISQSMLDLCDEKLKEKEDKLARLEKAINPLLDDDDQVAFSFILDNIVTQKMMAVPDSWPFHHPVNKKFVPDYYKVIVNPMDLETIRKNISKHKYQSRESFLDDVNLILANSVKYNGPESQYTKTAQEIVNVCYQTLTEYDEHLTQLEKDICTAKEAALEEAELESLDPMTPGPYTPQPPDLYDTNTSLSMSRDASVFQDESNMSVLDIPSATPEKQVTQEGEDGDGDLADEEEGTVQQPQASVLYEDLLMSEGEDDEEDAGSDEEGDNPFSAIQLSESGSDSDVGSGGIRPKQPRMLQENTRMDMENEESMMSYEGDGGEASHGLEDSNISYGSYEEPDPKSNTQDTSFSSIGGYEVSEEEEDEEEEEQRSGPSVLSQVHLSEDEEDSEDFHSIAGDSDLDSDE
Sequence of Mitogen-activated protein kinase kinase kinase kinase 4 (Homo sapiens) (O95819 2-1239 limits assumed): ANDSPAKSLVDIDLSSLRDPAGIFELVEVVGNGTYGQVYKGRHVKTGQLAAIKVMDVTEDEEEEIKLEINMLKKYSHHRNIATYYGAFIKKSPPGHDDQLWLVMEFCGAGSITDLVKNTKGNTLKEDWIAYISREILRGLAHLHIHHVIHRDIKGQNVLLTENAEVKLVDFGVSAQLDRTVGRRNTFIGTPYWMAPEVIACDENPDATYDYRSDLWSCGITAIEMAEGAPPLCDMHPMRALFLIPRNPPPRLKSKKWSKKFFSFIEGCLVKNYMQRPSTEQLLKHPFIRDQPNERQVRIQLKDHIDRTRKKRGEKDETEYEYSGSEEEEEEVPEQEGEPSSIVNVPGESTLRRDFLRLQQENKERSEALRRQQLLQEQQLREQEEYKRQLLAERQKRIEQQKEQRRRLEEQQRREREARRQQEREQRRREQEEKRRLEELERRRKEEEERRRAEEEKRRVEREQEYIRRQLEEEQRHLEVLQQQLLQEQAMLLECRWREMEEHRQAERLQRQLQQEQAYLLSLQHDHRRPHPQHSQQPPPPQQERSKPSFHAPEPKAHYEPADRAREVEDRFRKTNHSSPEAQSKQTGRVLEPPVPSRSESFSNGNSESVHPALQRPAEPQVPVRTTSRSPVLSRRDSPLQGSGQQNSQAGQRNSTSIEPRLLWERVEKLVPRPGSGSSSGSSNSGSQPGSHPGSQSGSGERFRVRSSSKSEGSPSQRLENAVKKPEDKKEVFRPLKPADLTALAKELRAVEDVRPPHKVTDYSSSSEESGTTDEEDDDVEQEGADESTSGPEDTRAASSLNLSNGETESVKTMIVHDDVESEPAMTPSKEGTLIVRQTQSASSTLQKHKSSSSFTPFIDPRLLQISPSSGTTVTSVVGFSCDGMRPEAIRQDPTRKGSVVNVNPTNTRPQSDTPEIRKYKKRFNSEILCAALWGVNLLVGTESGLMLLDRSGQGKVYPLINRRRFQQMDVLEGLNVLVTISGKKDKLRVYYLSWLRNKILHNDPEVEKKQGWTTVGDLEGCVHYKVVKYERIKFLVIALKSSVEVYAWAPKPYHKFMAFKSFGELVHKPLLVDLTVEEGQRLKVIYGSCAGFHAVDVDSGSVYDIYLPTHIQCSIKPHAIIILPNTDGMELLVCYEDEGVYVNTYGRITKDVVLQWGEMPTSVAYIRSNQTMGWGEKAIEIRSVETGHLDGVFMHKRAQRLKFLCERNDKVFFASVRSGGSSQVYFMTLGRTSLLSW
Sequence of Tyrosine-protein kinase Yes (Homo sapiens) (P07947 2-543 limits assumed): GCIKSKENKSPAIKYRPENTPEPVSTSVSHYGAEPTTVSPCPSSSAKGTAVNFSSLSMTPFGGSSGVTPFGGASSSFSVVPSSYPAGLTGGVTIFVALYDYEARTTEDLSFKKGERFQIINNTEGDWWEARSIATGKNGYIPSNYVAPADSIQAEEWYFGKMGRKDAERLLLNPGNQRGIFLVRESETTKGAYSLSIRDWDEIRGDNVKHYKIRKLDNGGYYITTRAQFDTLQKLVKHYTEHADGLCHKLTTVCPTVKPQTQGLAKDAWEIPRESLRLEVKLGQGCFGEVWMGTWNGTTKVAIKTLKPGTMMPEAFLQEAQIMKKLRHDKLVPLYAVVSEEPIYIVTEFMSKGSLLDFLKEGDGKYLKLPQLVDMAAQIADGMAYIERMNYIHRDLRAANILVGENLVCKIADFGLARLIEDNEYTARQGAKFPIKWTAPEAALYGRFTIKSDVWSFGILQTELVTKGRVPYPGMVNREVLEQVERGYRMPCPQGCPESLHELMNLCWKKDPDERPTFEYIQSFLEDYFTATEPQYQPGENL
Sequence of Tyrosine-protein kinase ABL1 (Homo sapiens) (P00519 whole entry): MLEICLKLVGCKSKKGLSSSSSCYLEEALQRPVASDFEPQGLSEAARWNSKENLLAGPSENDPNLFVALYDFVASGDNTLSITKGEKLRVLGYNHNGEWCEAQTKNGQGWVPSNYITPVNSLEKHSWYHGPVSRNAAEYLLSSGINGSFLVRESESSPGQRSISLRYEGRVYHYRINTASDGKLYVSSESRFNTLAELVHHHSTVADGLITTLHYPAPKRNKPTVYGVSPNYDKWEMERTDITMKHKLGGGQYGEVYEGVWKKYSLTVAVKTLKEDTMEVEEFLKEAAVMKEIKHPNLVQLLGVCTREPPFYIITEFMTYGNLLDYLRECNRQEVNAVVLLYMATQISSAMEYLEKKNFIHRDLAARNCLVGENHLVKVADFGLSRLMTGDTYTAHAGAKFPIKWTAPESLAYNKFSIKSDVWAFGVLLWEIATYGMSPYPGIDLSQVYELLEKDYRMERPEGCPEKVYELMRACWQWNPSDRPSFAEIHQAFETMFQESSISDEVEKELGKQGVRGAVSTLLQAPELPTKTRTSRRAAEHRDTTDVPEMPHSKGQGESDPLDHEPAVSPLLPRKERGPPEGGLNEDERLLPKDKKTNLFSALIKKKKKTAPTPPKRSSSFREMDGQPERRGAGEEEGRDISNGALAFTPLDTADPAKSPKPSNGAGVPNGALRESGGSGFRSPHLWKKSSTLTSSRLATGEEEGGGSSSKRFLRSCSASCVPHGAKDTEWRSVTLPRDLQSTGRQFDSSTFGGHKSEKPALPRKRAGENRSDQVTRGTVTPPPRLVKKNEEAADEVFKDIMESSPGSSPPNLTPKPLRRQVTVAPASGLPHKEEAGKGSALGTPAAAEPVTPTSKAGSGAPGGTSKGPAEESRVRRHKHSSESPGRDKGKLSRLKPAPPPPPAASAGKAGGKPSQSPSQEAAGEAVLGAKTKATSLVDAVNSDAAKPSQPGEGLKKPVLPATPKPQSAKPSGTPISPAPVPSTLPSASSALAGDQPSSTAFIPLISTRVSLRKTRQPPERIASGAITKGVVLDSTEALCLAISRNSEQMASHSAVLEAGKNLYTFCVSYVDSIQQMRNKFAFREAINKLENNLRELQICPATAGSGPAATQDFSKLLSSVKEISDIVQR

C/C=C/Cn1cc(-c2cc(OC)c(C(=O)N3CCOCC3)cc2OC)c2cc(C)[nH]c2c1=O
IC50 (Calu-3): 2 µM
IC50 (BEN): 2 µM
IC50 [1]: > 20 µM
inhibition [2]: 11%
IC50 (NCI-H441): 2 µM
IC50 (SW-620): 2 µM
IC50 (MEL-JUSO): 2 µM
IC50 (JIMT-1): 2 µM
IC50 (DAN-G): 2 µM
inhibition [3]: 18.5%
IC50 (IGROV-1): 2 µM
Activity (Rattus norvegicus): 86%
IC50 (HCC1937): 2 µM
Kd [4]: > 10 µM
IC50 (NCI-H1944): 2 µM
inhibition [5]: 0%
inhibition [6]: 5.5%
IC50 (MKN-45): 2 µM
inhibition [7]: -3.5%
Kd [8]: > 10 µM
IC50 (NCI-H460): 2 µM
Activity [9]: 3%
IC50 (U-698-M): 2 µM

C/C=C/Cn1cc(-c2ccc(C(C)(C)O)cc2OC)c2cc[nH]c2c1=O
IC50 (Calu-3): 20 µM
IC50 (BEN): 20 µM
IC50 [1]: > 20 µM
inhibition [2]: 10%
IC50 (NCI-H441): 20 µM
IC50 (SW-620): 20 µM
IC50 (MEL-JUSO): 20 µM
IC50 (JIMT-1): 20 µM
IC50 (DAN-G): 20 µM
inhibition [3]: 19.5%
IC50 (IGROV-1): 20 µM
Activity (Rattus norvegicus): -21%
IC50 (HCC1937): 20 µM
Kd [4]: > 10 µM
IC50 (WM 266-4): 20 µM
IC50 (NCI-H1944): 20 µM
inhibition [5]: 10.5%
inhibition [6]: 6%
IC50 (C-33-A): 20 µM
IC50 [10]: 20 µM
IC50 (MKN-45): 20 µM
inhibition [7]: 6%
Kd [8]: 0.41 µM
IC50 (NCI-H460): 20 µM
Activity [9]: 7%
IC50 (U-698-M): 20 µM

C/C=C/Cn1cc(-c2ccc(C(=O)N3CCOCC3)cc2)c2cc[nH]c2c1=O
IC50 (Calu-3): 20 µM
IC50 (BEN): 20 µM
IC50 [1]: 1.5 µM
inhibition [2]: -4.2%
IC50 (NCI-H441): 20 µM
IC50 (SW-620): 20 µM
IC50 (MEL-JUSO): 20 µM
IC50 (JIMT-1): 20 µM
IC50 (DAN-G): 20 µM
inhibition [3]: 6.5%
IC50 (IGROV-1): 20 µM
Activity (Rattus norvegicus): 13%
IC50 (HCC1937): 20 µM
Kd [4]: 26 µM
IC50 (WM 266-4): 20 µM
IC50 (NCI-H1944): 20 µM
inhibition [5]: 4.8%
inhibition [6]: 11.5%
IC50 (C-33-A): 20 µM
IC50 [10]: 20 µM
IC50 (MKN-45): 20 µM
inhibition [7]: -4.9%
Kd [8]: > 10 µM
IC50 (NCI-H460): 20 µM
Activity [9]: 7%
IC50 (U-698-M): 20 µM

C/C=C/Cn1cc(-c2cc(OC)c(C(C)(C)O)cc2OC)c2cc(C)[nH]c2c1=O
IC50 [1]: > 20 µM
Kd [4]: > 10 µM
Kd [8]: 0.16 µM
